The values below are quoted from earlier work in patent US20040258838A1, “Method for preserving wood materials using precipitated copper compounds” (priority 2003, published 2004).

The test system of the data set is fish. The following applies: essentially 1 milligram per liter.

On to `[Cu]` [copper], for which the “level at which copper is extremely toxic to fish” value is reported as “below 1 part per million”.
